The values below come from patent publication US20050202511A1, “AMP-activated protein kinase (AMPK) inhibitor screening assay” (priority 2002, published 2005).

The target of experiment [1] is T1, AMPK-γ2 CBS3-4 (WT) (Homo sapiens, UniProt Q9UGJ0).
T1 construct: the C-terminal pair (CBS3-4, residues 430-556); made in house; host or cells: E. coli BL21 (DE3)
In words: Filter binding assay, GST-CBS domain fusion. The note with it: single-site model. The text has this: The boundaries of the CBS domains were taken from the alignments by Bateman. Using a plasmid encoding human γ2 as the template, PCR was used to produce DNAs encoding all four CBS domains (CBS1-4, residues 274-569), the N-terminal pair (CBS1-2, residues 274-410) or the C-terminal pair (CBS3-4, residues 430-556). The PCR primers had been designed to create BamHI and XhoI sites at the ends, and these were used to insert them into a vector that created a fusion protein with glutathione-S-transferase at the N-terminal end followed by a hexaglycine spacer, with the CBS domains at the C-terminus. All three constructs were expressed in E. coli and could be purified on glutathione-Sepharose as soluble proteins of the expected sizes in good yield (CBS1-4, 61 kDa, 5 mg/L of culture; CBS1-2, 43 kDa, 2 mg/L; CBS3-4, 43 kDa, 2 mg/L).
(§1) Site-directed mutagenesis was also used to create a point mutation in CBS4 that causes hereditary heart disease (WPWS) (R531G).
Various concentrations of [^14C]-AMP, [γ^32P] […] Reactions were stopped by spotting 10 ìl onto a Millipore MF Filter Membrane disc and rapidly washing under high vacuum with 1 ml of ice-cold TBS. Radioactivity was determined on the filters by scintillation counting. Non-specific binding (which was trivial) was determined by performing the assay with GST as a control, and was subtracted. […]

Experiment [2] has as its target T2, AMPK-γ2 CBS3-4 (R531G) (Homo sapiens, UniProt Q9UGJ0, R531G).
T2 construct: the C-terminal pair (CBS3-4, residues 430-556); made in house; host or cells: E. coli BL21 (DE3)
In words: Filter binding assay, GST-CBS domain fusion. The note with it: for Kd: single-site model. As for the experimental part:
as §1
(§2) Various concentrations of [^14C]-AMP, [γ^32P] […] Reactions were stopped by spotting 10 ìl onto a Millipore MF Filter Membrane disc and rapidly washing under high vacuum with 1 ml of ice-cold TBS. Radioactivity was determined on the filters by scintillation counting. Non-specific binding (which was trivial) was determined by performing the assay with GST as a control, and was subtracted. […] Data were fitted to the binding models given in the text, using GraphPad Prism 3. Estimates of parameters resulting from fits are quoted in the text and Table 1±standard error, and the curves shown in figures are theoretical curves obtained using those estimates.

Experiment [3] addresses T3, AMPK-γ1 CBS1-4 (UniProt P80385).
T3 construct: B0.5; other: two site Hill plot model; h (Hill coefficient); fused on or other part: GST at the N-terminus (pGEX-KG, glycine spacer)
In words: Filter binding assay, GST-CBS domain fusion. Further details: species or system rat. The note with it: for Kd: two site Hill plot model, read-out: B0.5. The protocol:
The construct was expressed in E. coli and could be purified on glutathione-Sepharose as a soluble protein of the expected size (62 kDa) in good yield (3 mg/L of culture).
DNA encoding the CBS1-4 domains of the γ1 isoform was produced using PCR with a rat y1-encoding pcDNA3 plasmid as template. The primers used were: 5′-CGCGGATCCGCGATGGAGACGGTCATTTCTTCA-3′ (sense), 5′-CCGCTCGAGCGGGGGCTTCTTCTCTCCACCTGT-3′ (antisense). The PCR products was sub-cloned into pGEX-KG as above.
as §2

For experiment [4], the target named is T4, AMPK-γ3 CBS1-4 (Homo sapiens, UniProt Q9UGI9).
T4 construct: Human γ3 (residues 197-479) was also used as a template for PCR; made in house; host or cells: E. coli BL21 (DE3)
T4 sequence (Q9UGI9 197-479): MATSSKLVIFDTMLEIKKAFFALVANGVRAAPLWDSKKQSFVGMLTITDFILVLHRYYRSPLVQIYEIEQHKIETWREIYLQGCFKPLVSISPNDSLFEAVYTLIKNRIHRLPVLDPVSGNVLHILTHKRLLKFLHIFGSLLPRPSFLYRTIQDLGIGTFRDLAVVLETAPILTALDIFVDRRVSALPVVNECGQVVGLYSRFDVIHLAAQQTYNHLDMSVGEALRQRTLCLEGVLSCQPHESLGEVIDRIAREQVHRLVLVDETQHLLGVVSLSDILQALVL
In words: Filter binding assay, GST-CBS domain fusion. Particulars: for Kd: two site Hill plot model, read-out: B0.5.
Description: DNA fragments were produced encoding all four (CBS1-4), or the first two (CBS1-2), or the last two (CBS3-4) of the tandem CBS domains from the human AMPK γ2 subunit. DNAs were produced by the polymerase chain reaction (PCR) using the Stratagene Pfu Turbo PCR kit and a human γ2-encoding pcDNA3 plasmid as template. The following oligonucleotides were used as primers: (CBS1-4), 5′-CGCGGATCCGCGGTTCCAACCAGTTCAAAGCTTGTT-3′ (sense), 5′-CCGCTCGAGCGGCTCCGTTTCTGTCTCCTTTTGTTT-3′ (antisense); CBS1-2 (sense strand as CBS1-4), 5′-CCGCTCGAGCGGAAGCTGGAGGAACTTGAGGATTCT-3′ (antisense); CBS3-4: 5′-CGCGGATCCGCGATAGGAACGTACCACAACATTGCC-3′ (sense), 5′-CCGCTCGAGCGGGAGGATCAGGGCTTGCAGAATGTC-3′ (antisense). Human γ3 (residues 197-479) was also used as a template for PCR (14). The PCR products were subcloned into pGEX-KG as 5′-BamHI and 3′-XhoI restriction fragments for expression as glutathione-S-Transferase (GST) fusions in E. coli.
as §2

Experiment [5] addresses T5, IMPDH2 CBS1-2 (WT) (Homo sapiens, UniProt P12268).
T5 construct: DNAs encoding residues 112-232 or the full-length protein (1-514) were amplified; His tag (pHAT20 vector); made in house; host or cells: E. coli
In words: Filter binding assay, isolated CBS domain pair. The note with it: single-site model. The text has this:
To examine whether binding of adenine nucleotides is a general function for CBS domains, or is specific to the γ subunits of AMPK, IMP dehydrogenase (IMPDH) was also studied. Retinitis pigmentosa can be caused by an R224P mutation in the second CBS domain of the IMPDH1 isoform (27). However, the IMPDH2 isoform is 84% identical in amino acid sequence with IMPDH1, and the arginine mutated in retinitis pigmentosa is conserved. Because the IMPDH2 isoform is ubiquitously expressed and a suitable cDNA to use as a template for PCR was more readily available, DNA encoding the single pair of CBS domains from human IMPDH2 was cloned, an R224P mutation was created and expressed both the wild type and the mutant as His-tagged proteins in E. coli.
For IMPDH2, DNAs encoding residues 112-232 or the full-length protein (1-514) were amplified using human liver cDNA (Clontech) as template, and cloned into pHAT20 (Clontech) using 5′-AgeI and 3′-KpnI sites added to the primers. For the other constructs, DNAs encoding residues 582-840 of CLC2, or 416-551 of cystathionine â-synthase, were amplified using human liver cDNA as template, and cloned into pGEX-KG as above using 5′-BamHI and 3′-XhoI sites added to the primers. All mutations were created using the Stratagene QuikChange Site-directed Mutagenesis system.
The IMPDH2 constructs were His-tagged and were purified on chelating-Sepharose (Pharmacia) charged with 50 mM CoCl2 according to manufacturer's instructions.
Various concentrations of [^14C]-AMP, [γ^32P] […] Reactions were stopped by spotting 10 ìl onto a Millipore MF Filter Membrane disc and rapidly washing under high vacuum with 1 ml of ice-cold TBS. Radioactivity was determined on the filters by scintillation counting. Non-specific binding (which was trivial) was determined by performing the assay with GST as a control, and was subtracted. […] Data were fitted to the binding models given in the text, using GraphPad Prism 3. […]

Molecules are shown by their SMILES. Where “and” joins values, the source holds several entries; their conditions need not be identical. Equal entries are not always repeated.

T2 sequence (Q9UGJ0 430-556 R531G): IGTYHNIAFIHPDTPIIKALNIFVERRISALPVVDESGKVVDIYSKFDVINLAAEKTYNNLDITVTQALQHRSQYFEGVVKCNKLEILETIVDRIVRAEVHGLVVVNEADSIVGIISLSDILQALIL
T5 sequence (P12268 112-232): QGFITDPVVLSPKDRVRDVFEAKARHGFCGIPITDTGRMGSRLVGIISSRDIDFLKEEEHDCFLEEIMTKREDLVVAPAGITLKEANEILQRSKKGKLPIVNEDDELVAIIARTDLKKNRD
T1 sequence (Q9UGJ0 430-556): as the sequence (Q9UGJ0 430-556 R531G) above, with G102R counted along it

Regarding `Nc1ncnc2c1ncn2[C@@H]1O[C@H](COP(=O)(O)O)[C@@H](O)[C@H]1O` [AMP, adenosine monophosphate], the Kd in experiment [1] is 104 ± 10 µM; in experiment [2], 1570 ± 110 µM; in experiment [3], 20 ± 1 µM; in experiment [4], 125 µM; in experiment [5], 437 ± 53 µM. The “increase in Kd relative to wild type” value in experiment [2] was determined as 15 fold. Further, the “h (Hill coefficient)” value in experiment [3] was 1.6±0.1 and 1.6 ± 0.2; in experiment [4], 2.2 ± 0.1.

Turning to `Nc1ncnc2c1ncn2[C@@H]1O[C@H](COP(=O)(O)OP(=O)(O)OP(=O)(O)O)[C@@H](O)[C@H]1O` [ATP], the Kd was found to be 403 ± 16 µM in experiment [1]; 2050 ± 150 µM in experiment [2]; 119 ± 7 µM in experiment [3]; 989 ± 58 µM in experiment [4]; 54 µM in experiment [5]. Moreover, the “h (Hill coefficient)” value in experiment [3] came out at 1.9 ± 0.2; in experiment [4], 1.5 ± 0.1.
